The subject of the assay is HCV 1b genotype replicon. As to the kind of experiment: HCV replicon assay - qRT-PCR (HCV RNA detection). Type of assay: cell-based. The settings on record: Hepatitis C virus, from the qRT-PCR or luciferase assay (not specified which), EC50 range class. The text has this: HCV replicon cell lines (kindly provided by R. Bartenschlager) isolated from colonies as described by Lohman et. al. (Lohman et al. (1999) Science 285: 110-113, expressly incorporated by reference in its entirety) and used for all experiments. The HCV replicon has the nucleic acid sequence set forth in EMBL Accession No.: AJ242651, the coding sequence of which is from nucleotides 1801 to 8406.
The coding sequence of the published HCV replicon was synthesized and subsequently assembled in a modified plasmid pBR322 (Promega, Madison, Wis.) using standard molecular biology techniques. One replicon cell line (“SGR 11-7”) stably expresses HCV replicon RNA which consists of (i) the HCV 5′UTR fused to the first 12 amino acids of the capsid protein, (ii) the neomycin phosphotransferase gene (neo), (iii) the IRES from encephalomyocarditis virus (EMCV), and (iv) HCV NS2 to NS5B genes and the HCV 3′UTR. Another replicon cell line (“Huh-luc/neo-ET”) described by Vrolijk et. al. (Vrolijk et. al. (2003) Journal of Virological Methods 110:201-209, expressly incorporated by reference in its entirety) stably expresses HCV replicon RNA which consists of (i) the HCV 5′UTR fused to the first 12 amino acids of the capsid protein, (ii) the firefly luciferase reporter gene, (iii) the ubiquitin gene, (iv) the neomycin phosphotransferase gene (neo), (v) the IRES from encephalomyocarditis virus (EMCV), and (vi) HCV NS3 to NS5B genes that harbor cell culture adaptive mutations (E1202G, T12801, K1846T) and the HCV 3′UTR.
These cell lines were maintained at 37° C., 5% CO2, 100% relative humidity in DMEM (Cat#11965-084, Invitrogen), with 10% fetal calf serum (“FCS”, Invitrogen), 1% non-essential amino acids (Invitrogen), 1% of Glutamax (Invitrogen), 1% of 1 OOX penicillin/streptomycin (Cat#15140-122, Invitrogen) and Geneticin (Cat#10131-027, Invitrogen) at 0.75 mg/ml or 0.5 mg/ml for 11-7 and Huh-luc/neo-ET cells, respectively.
EC50 values of single agent compounds and combinations were determined by HCV RNA detection using quantitative RT-PCR, according to the manufacturer's instructions, with a TAQMAN® One-Step RT-PCR Master Mix Reagents Kit (Cat# AB 4309169, Applied Biosystems) on an ABI Model 7500 thermocycler. The TaqMan primers used for detecting and quantifying HCV RNA were obtained from Integrated DNA Technologies. HCV RNA was normalized to GAPDH RNA levels in drug-treated cells, which is detected and quantified using the Human GAPDH Endogenous Control Mix (Applied Biosystems, AB 4310884E). Total cellular RNA is purified from 96-well plates using the RNAqueous 96 kit (Ambion, Cat# AM1812). Chemical agent cytotoxicity is evaluated using an MTS assay according to the manufacturer's directions (Promega).
The compounds of the present invention can be effective against the HCV 1b genotype. It should also be understood that the compounds of the present invention can inhibit multiple genotypes of HCV. In one embodiment compound of the present invention are active against the 1a, 1b, 2a, 2b, 3a, 4a, and 5a genotypes. […] EC50 ranges against HCV 1b are as follows: A>10 nM; B1-10 nM; C<1 nM.
Background: Replicon systems follow genome replication, usually without infectious particles.

As for `COC(=O)N[C@H](C(=O)N1CCC[C@H]1c1ncc(-c2ccc3cc(-c4ccc5[nH]c(N6CCCN6C(=O)[C@@H](NC(=O)OC)C(C)C)nc5c4)ccc3c2)[nH]1)C(C)C` [Example 368], the EC50 (commonly the midpoint of the concentration-response curve) is less than 1 nM. For `COC(=O)N[C@H](C(=O)N1CCC[C@H]1c1nc2ccc(C#Cc3ccc(-c4cnc([C@@H]5CCCN5C(=O)N(NC(=O)OC)C(C)C)[nH]4)cc3)cc2[nH]1)C(C)C` [Example 369], the 50% effective concentration (EC50) was less than 1 nM.

Take `CCN(NC(=O)OC)C(=O)N1CCC[C@H]1c1ncc(-c2ccc(C#Cc3ccc4nc([C@@H]5CCCN5C(=O)[C@@H](NC(=O)OC)C(C)C)[nH]c4c3)cc2)[nH]1` [Example 370]: the EC50 is less than 1 nM. In the case of `CCCN(NC(=O)OC)C(=O)N1CCC[C@H]1c1ncc(-c2ccc(C#Cc3ccc4nc([C@@H]5CCCN5C(=O)[C@@H](NC(=O)OC)C(C)C)[nH]c4c3)cc2)[nH]1` [Example 371] it was less than 1 nM. As for `COC(=O)N[C@H](C(=O)N1CCC[C@H]1c1nc2ccc(C#Cc3ccc(-c4cnc([C@@H]5CCCN5C(=O)N(CC(C)C)NC(=O)OC)[nH]4)cc3)cc2[nH]1)C(C)C` [Example 372], the EC50 is less than 1 nM. In the case of `COC(=O)NN(C(=O)N1CCC[C@H]1c1ncc(-c2ccc(-c3ccc(-c4cnc([C@@H]5CCCN5C(=O)N(NC(=O)OC)C(C)C)[nH]4)cc3)cc2)[nH]1)C(C)C` [Example 373] it was less than 1 nM. Then `COC(=O)N[C@H](C(=O)N1CCC[C@H]1c1ncc(-c2ccc(-c3ccc(-c4cnc([C@@H]5CCCN5C(=O)N(NC(=O)OC)C(C)C)[nH]4)cc3)cc2)[nH]1)C(C)C` [Example 374], with less than 1 nM. In the case of `CCN(NC(=O)OC)C(=O)N1CCC[C@H]1c1ncc(-c2ccc(-c3ccc(-c4cnc([C@@H]5CCCN5C(=O)[C@@H](NC(=O)OC)C(C)C)[nH]4)cc3)cc2)[nH]1` [Example 375] it was less than 1 nM.
